In series [1] the target is T1, thrombin receptor (Homo sapiens, UniProt P25116).
T1 construct: HeLa cells, which constitutively express the thrombin receptor; endogenous in cells; host or cells: HeLa cells
T1 sequence (P25116 22-425): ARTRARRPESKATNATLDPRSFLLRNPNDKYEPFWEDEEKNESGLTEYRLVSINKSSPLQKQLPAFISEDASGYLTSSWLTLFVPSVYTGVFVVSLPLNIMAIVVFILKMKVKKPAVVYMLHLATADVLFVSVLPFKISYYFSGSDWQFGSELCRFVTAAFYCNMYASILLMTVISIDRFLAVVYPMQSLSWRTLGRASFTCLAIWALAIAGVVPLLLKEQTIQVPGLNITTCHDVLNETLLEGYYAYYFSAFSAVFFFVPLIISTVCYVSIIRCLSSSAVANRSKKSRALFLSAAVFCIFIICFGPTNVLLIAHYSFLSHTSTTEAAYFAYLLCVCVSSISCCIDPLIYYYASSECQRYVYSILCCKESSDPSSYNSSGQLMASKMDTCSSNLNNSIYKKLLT
Description: Thrombin receptor antagonist assay using FLIPR: thrombin-induced intracellular calcium mobilization in HeLa cells. The series is classed as cell-based. The settings on record: fluo-3, thrombin 0.3 U/ml. The protocol:
Tests were conducted of inhibition of thrombin-induced calcium mobilization in HeLa cells (see FIG. 2). […] The HPLC profiles of the extracts were very similar, and in both cases the biological activity resided in the same chromatographic fractions indicating common active principles. One of these was fully deconvoluted, and several active components were isolated. These were all glycosides of penasterol though differing in the number of sugar residues attached at the C-1 position.
Thrombin receptor antagonist assay using FLIPR (fluorescence)imaging plate reader: HeLa cells were suspended in complete media and the cell density measured then adjusted to give a final cell density of 2.0×10^5/ml. 100 μl of cell suspension was dispensed into 96-well microtitre plates using a Multipdrop 96/384 well plate dispenser. […] Fluorescence output was read every 1 second for the first 20 seconds then every 5 seconds for a further 30 seconds.
An assay was conducted based upon measurement of thrombin-inducedintracellular calcium mobilization in HeLa cells, which constitutively express the thrombin receptor. Intracellular calcium flux was measured using the fluorescent dye fluo-3' which in the absence of calcium ions fluoresces only weakly, but in the presence of calcium increases fluorescence by approximately 100-fold. Fluorescence was measured using a fluorescence imaging plate reader (FLIPR; see FIG. 2).
On the technique in general: Calcium flux is commonly read through the fluorescence of an indicator in the cells.

Series [2] concerns the target T2, protease-activated receptor 1 (PAR-1) (Homo sapiens, UniProt P25116).
T2 construct: Blood was withdrawn from the antecubal vein of healthy human volunteers; endogenous in cells; host or cells: washed platelets from blood of healthy human volunteers
T2 sequence (P25116 22-425): T1 sequence (P25116 22-425)
Description: Thrombin-induced platelet aggregation, human washed platelets. Format: cell-based. As to conditions: thrombin 0.1 U/ml. The protocol: (§1) Platelet aggregation assay: Blood was withdrawn from the antecubal vein of healthy human volunteers who had taken no medication for 14 days. The blood (9 volumes) was anti-coagulated with 1 volume of 3.8% w/v tri-sodium citrate, to give a final citrate concentration of 12.9 mM. To each 20 ml volume of anti-coagulated blood 50 μl of a 10 μg/ml prostacyclin (PGI2) solution was added to prevent activation during the platelet isolation process. The prostacyclin-treated blood was then centrifuged (1280×g; 4 minutes) to yield platelet-rich plasma (PRP). […] The supernatant (platelet-poor plasma) was discarded and the platelets resuspended in a Hepes buffer (NaCl (8 g/l); NaHCO3 (1 g/l); KCl (0.2 g/l); KH2 PO4 (0.1 g/l); Hepes (1.2 g/l); D-Glucose (1 g/l) adjusted to a pH of 6.4. The resultant platelet suspension was again centrifuged (1280×g; 8 minutes) to pellet the platelets. The supernatant was discarded and the platelets resuspended in a Hepes buffer of the same composition but adjusted to a pH of 7.4. The platelet count was then adjusted to 300,000 platelets/μl, following quantification on a Sysmex K1000 Haematological analyser and CaCl2 (1 mM) and MgCl2 (0.5 mM) were added back. […]
(§2) Platelet aggregation, in a human washed platelet preparation, was quantified using an optical aggregometer. […]

Series [3] addresses T2, protease-activated receptor 1 (PAR-1). Description: SFLLRN-induced platelet aggregation, human washed platelets. Format: cell-based. Here is the method: as §1, §2
Series [4] deals with liver hepatocyte (HepG2) cells. Description: Toxicity against liver hepatocyte (HepG2) cells. Format: cell-based.
For series [5], the system named is human washed platelet preparation. Description: U-46619-induced platelet aggregation, human washed platelets. The settings on record: U-46619 3 μM. The series is classed as cell-based. Here is the method:
as §1, §2

In series [6] the test system is rat mast cells. The settings on record: cited from earlier work.
The target in series [7] is T3, C5 a-receptor (Homo sapiens, UniProt P21730).
T3 sequence (P21730 1-350): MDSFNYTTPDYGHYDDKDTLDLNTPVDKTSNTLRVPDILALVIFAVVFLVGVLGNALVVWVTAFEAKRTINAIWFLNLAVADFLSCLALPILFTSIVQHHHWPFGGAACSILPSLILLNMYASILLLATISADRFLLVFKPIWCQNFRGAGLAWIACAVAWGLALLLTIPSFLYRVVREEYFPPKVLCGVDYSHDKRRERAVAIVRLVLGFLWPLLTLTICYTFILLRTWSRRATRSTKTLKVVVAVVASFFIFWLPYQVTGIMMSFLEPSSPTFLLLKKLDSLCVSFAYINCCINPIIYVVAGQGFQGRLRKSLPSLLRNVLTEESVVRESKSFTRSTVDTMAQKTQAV
The settings on record: cited from earlier work.

Turning to `CC(C)=CCC[C@@H](C)[C@H]1CC[C@@]2(C(=O)O)C3=C(CC[C@]12C)[C@@]1(C)CC[C@H](O[C@@H]2OC[C@H](O)[C@H](O)[C@H]2O[C@@H]2O[C@H](CO)[C@H](O)[C@H](O)[C@H]2O)C(C)(C)[C@@H]1CC3` [Eryloside F, eryloside F], the “Inhibition of thrombin-induced calcium mobilization (thrombin receptor antagonist activity)” value in series [1] is “most potent activity”. Besides, the “Inhibitory potency against thrombin-induced platelet aggregation relative to SFLLRN-induced, fold lower” value in series [2] is given as “approximately 20 fold”. Besides, in series [3] (SFLLRN 3 μM vs U-46619 3 μM), the “Fold more potent against SFLLRN- than against U-46619-induced platelet aggregation” value was “approximately 6 fold”. In series [3] (SFLLRN 3 μM, human washed platelets), the “IC50, inhibition of SFLLRN-induced platelet aggregation” value came out at 0.3 µg/mL. Besides, the “Toxicity against HepG2 cells” value in series [4] was “low toxicity”. For the same compound, in series [5], the “IC50, inhibition of U-46619-induced platelet aggregation” value was found to be 1.7 µg/mL.

As for `CC(=O)O[C@H]1CC[C@]2(C)C3=C(CC[C@H]2C1(C)C)[C@]1(C(=O)O)CC[C@H]([C@H](C)CCC=C(C)C)[C@@]1(C)CC3` [acetylpenasterol], the “Inhibition of IgE-dependent histamine release” value in series [6] is on record as “inhibit IgE-dependent histamine release”.

As for `CC(C)=CCC[C@@H](C)[C@H]1CC[C@@]2(C(=O)O)C3=C(CC[C@]12C)[C@@]1(C)CCC(=O)C(C)(C)[C@@H]1CC3` [penasterone], the “Inhibition of IgE-dependent histamine release” value in series [6] is recorded as “inhibit IgE-dependent histamine release”.

Consider Eryloside E, for which the “Antagonism of C5a-receptor binding” value in series [7] is “antagonist of C5 a-receptorbinding”.

As for Penasterol, the “Inhibition of IgE-dependent histamine release” value in series [6] is given as “inhibit IgE-dependent histamine release”.

The values are drawn from patent US6399581B1, “Compound possessing potent thrombin receptor antagonist activity” (Harbor Branch Oceanographic Institution, Inc., priority 1999, dated 2002).
